Data reported in patent US12495798B2, “Nicotinamide compound and herbicidal composition comprising compound” (KOREA RESEARCH INSTITUTE OF CHEMICAL TECHNOLOGY, priority 2019, dated 2025).

How the values were obtained:
Format in all cases: in vivo
[1] = system: quack grass; experiment: Herbicidal activity test against upland field weeds (foliar treatment test); set-up: key to Foliar treatment herbicidal activity, quack grass: 0 (no control); 100 (complete control); settings: 50 g ai/ha, scale 0-100
Outline: (§1)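 Weeds were raised from seed or rootstocks in horticultural soil in a greenhouse (30±5° C., 14/10 h light/dark), then foliage was hand-sprayed with compound at 50 or 75 g a.i./ha in 50% acetone with 0.1% Tween-20. Control was scored visually 0–100 against untreated plants after 14 days, or 21 if needed.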

[2] = system: black nightshade; experiment: Herbicidal activity test against upland field weeds (soil treatment test); set-up: key to Soil treatment herbicidal activity, black nightshade: 0 (no control); 100 (complete control); settings: 50 g ai/ha, scale 0 (no control) to 100 (complete control); for pest or weed control at 50 g/ha: Solanum nigrum
Outline: (§2)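 Pre-emergence test: seeds or rootstocks were sown in fertilized sandy loam, and the next day the soil surface was sprayed with compound at 50 or 75 g a.i./ha in 50% acetone/0.1% Tween-20. Plants were grown in a greenhouse (30±5 °C, 14/10 h light/dark), then visually scored 0–100 against untreated at 14 d (21 d if needed).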

[3] = system: crabgrass; experiment: Herbicidal activity test against upland field weeds (foliar treatment test); set-up: key to Foliar treatment herbicidal activity, Crabgrass: 0 (no control); 100 (complete control); settings: 50 g ai/ha, scale 0-100; for pest or weed control at 50 g/ha: Digitaria sanguinalis
Outline: as §1

[4] = system: sorghum; experiment: Herbicidal activity test against upland field weeds (soil treatment test); set-up: key to Soil treatment herbicidal activity, Sorghum: 0 (no control); 100 (complete control); settings: 50 g ai/ha, scale 0 (no control) to 100 (complete control)
Outline: as §2

[5] = system: cocklebur; experiment: Herbicidal activity test against upland field weeds (foliar treatment test); set-up: key to Foliar treatment herbicidal activity, Cocklebur: 0 (no control); 100 (complete control); settings: 50 g ai/ha, scale 0-100; for pest or weed control at 50 g/ha: Xanthium strumarium
Outline: as §1

[6] = system: fall panicum; experiment: as above; set-up: key to Foliar treatment herbicidal activity, Fall panicum: 0 (no control); 100 (complete control); settings: 50 g ai/ha, scale 0-100
Outline: as §1

[7] = system: velvetleaf; experiment: as above; set-up: key to Foliar treatment herbicidal activity, velvet leaf: 0 (no control); 100 (complete control); settings: 50 g ai/ha; for pest or weed control at 50 g/ha: Abutilon theophrasti, scale 0-100, read-out: Foliar treatment herbicidal activity, velvet leaf
Outline: as §1

[8] = system: crabgrass; experiment: Herbicidal activity test against upland field weeds (soil treatment test); set-up: key to Soil treatment herbicidal activity, Crabgrass: 0 (no control); 100 (complete control); settings: 50 g ai/ha, scale 0 (no control) to 100 (complete control); for pest or weed control at 50 g/ha: Digitaria sanguinalis
Outline: as §2

[9] = system: sorghum; experiment: Herbicidal activity test against upland field weeds (foliar treatment test); set-up: key to Foliar treatment herbicidal activity, Sorghum: 0 (no control); 100 (complete control); settings: 50 g ai/ha, scale 0-100
Outline: as §1

[10] = system: indian jointvetch; experiment: Herbicidal activity test against upland field weeds (soil treatment test); set-up: key to Soil treatment herbicidal activity, Indian jointvetch: 0 (no control); 100 (complete control); settings: 50 g ai/ha, scale 0 (no control) to 100 (complete control)
Outline: as §2

[11] = system: fall panicum; experiment: as above; set-up: key to Soil treatment herbicidal activity, Fall panicum: 0 (no control); 100 (complete control); settings: 50 g ai/ha, scale 0 (no control) to 100 (complete control); for pest or weed control at 50 g/ha: Panicum dichotomiflorum
Outline: as §2

[12] = system: indian jointvetch; experiment: Herbicidal activity test against upland field weeds (foliar treatment test); set-up: key to Foliar treatment herbicidal activity, Indian jointvetch: 0 (no control); 100 (complete control); settings: 50 g ai/ha, scale 0-100
Outline: as §1

[13] = system: barnyard grass; experiment: Herbicidal activity test against upland field weeds (soil treatment test); set-up: key to Soil treatment herbicidal activity, barnyard grass: 0 (no control); 100 (complete control); settings: 50 g ai/ha, scale 0 (no control) to 100 (complete control)
Outline: as §2

[14] = system: barnyard grass; experiment: Herbicidal activity test against upland field weeds (foliar treatment test); set-up: key to Foliar treatment herbicidal activity, barnyard grass: 0 (no control); 100 (complete control); settings: 50 g ai/ha, scale 0-100; for pest or weed control at 50 g/ha: Echinochloa crus-galli
Outline: as §1

[15] = system: bindweed; experiment: Herbicidal activity test against upland field weeds (soil treatment test); set-up: key to Soil treatment herbicidal activity, Bindweed: 0 (no control); 100 (complete control); settings: 50 g ai/ha, scale 0 (no control) to 100 (complete control)
Outline: as §2

[16] = system: velvetleaf; experiment: as above; set-up: key to Soil treatment herbicidal activity, velvet leaf: 0 (no control); 100 (complete control); settings: 50 g ai/ha, scale 0 (no control) to 100 (complete control)
Outline: as §2

[17] = system: bindweed; experiment: Herbicidal activity test against upland field weeds (foliar treatment test); set-up: key to Foliar treatment herbicidal activity, Bindweed: 0 (no control); 100 (complete control); settings: 50 g ai/ha, scale 0-100
Outline: as §1

[18] = system: cocklebur; experiment: Herbicidal activity test against upland field weeds (soil treatment test); set-up: key to Soil treatment herbicidal activity, Cocklebur: 0 (no control); 100 (complete control); settings: 50 g ai/ha, scale 0 (no control) to 100 (complete control)
Outline: as §2

[19] = system: black nightshade; experiment: Herbicidal activity test against upland field weeds (foliar treatment test); set-up: key to Foliar treatment herbicidal activity, black nightshade: 0 (no control); 100 (complete control); settings: 50 g ai/ha, scale 0-100; for pest or weed control at 50 g/ha: Solanum nigrum
Outline: as §1

[20] = system: quack grass; experiment: Herbicidal activity test against upland field weeds (soil treatment test); set-up: key to Soil treatment herbicidal activity, quack grass: 0 (no control); 100 (complete control); settings: 50 g ai/ha, scale 0 (no control) to 100 (complete control)
Outline: as §2

Row | Compound | Foliar treatment herbicidal activity, quack grass [1] | pest or weed control at 50 g/ha [2] [%] | Foliar treatment herbicidal activity, Crabgrass [3] | Soil treatment herbicidal activity, Sorghum [4] | Foliar treatment herbicidal activity, Cocklebur [5] | Foliar treatment herbicidal activity, Fall panicum [6] | pest or weed control at 50 g/ha [7] [%] | Soil treatment herbicidal activity, Crabgrass [8] | Foliar treatment herbicidal activity, Sorghum [9] | Soil treatment herbicidal activity, Indian jointvetch [10] | Soil treatment herbicidal activity, Fall panicum [11] | Foliar treatment herbicidal activity, Indian jointvetch [12] | Soil treatment herbicidal activity, barnyard grass [13] | Foliar treatment herbicidal activity, barnyard grass [14] | Soil treatment herbicidal activity, Bindweed [15] | Foliar treatment herbicidal activity, Bindweed [17] | Soil treatment herbicidal activity, Cocklebur [18] | pest or weed control at 50 g/ha [19] [%] | Soil treatment herbicidal activity, quack grass [20] | Soil treatment herbicidal activity, velvet leaf [16] | other results
1 | CCc1cc(C(=O)Nc2nnnn2C)c(OCc2nnnn2C)nc1C(F)(F)F [Compound No. 1-19, 5-ethyl-N-(1-methyl-1H-tetrazol-5-yl)-2-((1-methyl-1H-tetrazol-5-yl)methoxy)-6-(trifluoromethyl)nicotinamide] | 0 | 98 | 0 | 0 | 0 | 0 | 20 | 0 | 0 | 0 | 0 | 0 | 0 | 0 | 0 | 0 | 0 | 90 | 0 | – | pest or weed control at 50 g/ha ([16]; Abutilon theophrasti, read-out: Soil treatment herbicidal activity, velvet leaf): 20%
2 | C#CCN(Cc1nnn(C)n1)c1nc(C(F)(F)F)ccc1C(=O)Nc1nnnn1C [Compound No. 2-28, N-(1-methyl-1H-tetrazol-5-yl)-2-(((2-methyl-2H-tetrazol-5-yl)methyl)(prop-2-yn-1-yl)amino)-6-(trifluoromethyl)nicotinamide] | 0 | – | – | 0 | – | 0 | 40 | – | 0 | – | – | – | – | – | 0 | – | 0 | 90 | 0 | 100 | Soil treatment herbicidal activity, black nightshade [2]: 100; pest or weed control at 50 g/ha [3]: 30%; pest or weed control at 50 g/ha [5]: 80%; pest or weed control at 50 g/ha [8]: 90%; pest or weed control at 50 g/ha [10]: 70%; pest or weed control at 50 g/ha [11]: 70%; pest or weed control at 50 g/ha [12]: 40%; pest or weed control at 50 g/ha ([13]; Echinochloa crus-galli): 70%; pest or weed control at 50 g/ha [14]: 70%; pest or weed control at 50 g/ha [17]: 40%
3 | Cn1nnc(CN(OCc2ccccc2)c2nc(C(F)(F)F)ccc2C(=O)Nc2nnnn2C)n1 [Compound No. 2-29, 2-((benzyloxy)((2-methyl-2H-tetrazol-5-yl)methyl)amino)-N-(1-methyl-1H-tetrazol-5-yl)-6-(trifluoromethyl)nicotinamide] | 0 | 20 | 0 | 0 | 0 | 0 | – | 0 | 0 | 0 | 0 | 0 | 0 | 0 | 0 | 0 | 0 | 20 | 0 | 0 | Foliar treatment herbicidal activity, velvet leaf ([7]; scale 0-100): 0
4 | CCON(Cc1nnn(C)n1)c1nc(C(F)(F)F)ccc1C(=O)Nc1nnnn1C [Compound No. 2-31, 2-(ethoxy((2-methyl-2H-tetrazol-5-yl)methyl)amino)-N-(1-methyl-1H-tetrazol-5-yl)-6-(trifluoromethyl)nicotinamide] | 0 | – | – | 0 | – | – | 70 | – | 0 | – | – | – | 100 | – | 0 | 0 | – | – | 0 | 100 | Soil treatment herbicidal activity, black nightshade [2]: 100; pest or weed control at 50 g/ha [3]: 60%; pest or weed control at 50 g/ha [5]: 70%; pest or weed control at 50 g/ha ([6]; Panicum dichotomiflorum): 40%; pest or weed control at 50 g/ha [8]: 98%; pest or weed control at 50 g/ha [10]: 98%; pest or weed control at 50 g/ha [11]: 95%; pest or weed control at 50 g/ha [12]: 40%; pest or weed control at 50 g/ha [14]: 90%; pest or weed control at 50 g/ha ([18]; Xanthium strumarium): 30%; Foliar treatment herbicidal activity, black nightshade [19]: 100
